# Assay results: patent US8796241B2, “Therapy of tumors and infectious agents deficient in methylthioadenosine phosphorylase” (priority 2007, dated 2014)
# Tests used:
# [1] = system: MTAP(+) hematopoietic cell progenitors; assay: Assay of colony-forming cells from mouse bone marrow; format: cell-based; settings: 5′-dAdo at doses as low as 15 μM
# Description: Method: The procedure for assay of colony-forming cells from mouse bone marrow was similar to methods described in the literature (see e.g., B. A. Teicher et al, Cancer Research, 47:513-518, 1987). In brief, cells were flushed from the femurs of Swiss mice, counted, and seeded into six-well tissue culture plates with supplemented McCoy's 5A medium, 15% FBS, 10 to 20% L929-cell conditioned medium as a source of colony-stimulating activity (L929 is MTAP-negative), 0.3% agar, and penicillin/streptomycin (op. cit. B. A. Teicher et al). Cells were seeded at two different densities: 50,000 and 250,000 cells per well. Control wells contained either no drugs, or adenine at 15 or 30 μM, or 5′-deoxyadenosine (5′-dAdo) at 15, 30, or 45 μM. Treatment wells contained 6-methylpurine (MeP) at 5 or 15 μM, 5′-deoxyadenosine (5′-dAdo) at 15 or 30 μM, and adenine at 15 or 30 μM, in various combinations. After eight days of incubation at 37° C. in a humidified 5% CO2 atmosphere, wells were fixed by the addition of 1 ml of 5% glutaraldehyde. Photographs were taken of a randomly selected portion of each well, as viewed (at fixed magnification) through a Nikon inverted microscope equipped with a camera.
# [2] = system: MTAP(+) HF cells; assay: Coulter counts of HF cell cultures; format: cell-based, human
# Method: For adherent cell types (e.g., HF, A549, MCF7) cells were plated in 60 mm -diameter plastic tissue culture dishes and incubated at 37° C. in a humidified 5% CO2 atmosphere, in Dulbecco's Modified Eagle's Medium (DME) with 10% fetal bovine serum (FBS). At the start of an experiment, medium was replaced with DME and 10% dialyzed FBS.
# For adherent cell types, cell numbers were determined periodically by releasing cells with trypsin (dead cells that were no longer adherent were removed by two prior rinses of the culture dish) and placing a portion of the resulting cell suspension in a Coulter counter. For cell types that grow in suspension, portions of the culture were counted directly, without trypsin treatment. Coulter counts of cells from each dish were done twice, and almost all experiments were done in duplicate. In the presentation of results, raw data for Coulter counts is given in some cases, while in others, counts have been rounded off to two to three significant figures. (Background Coulter counts—i.e., counts of diluent alone—were insignificant.)
# Cell cultures were treated with MeP, with or without 5′-dAdo or MTA, for 4 days. The cell cultures were then changed to fresh medium, with the addition of 30 μM Ade to inhibit further action of the analog. Two days later cultures were trypsinized and a portion of the suspension was counted.
# • A. F-Ade was added to cultures of HF cells, with varying amounts of 5′-dAdo. After 3 days, cell numbers were counted. • Initial cell count: 1,100 • After three days:
# • Cultures of human fibroblasts were treated with DAP, 5′-dAdo, MTA, adenine, or MTX. Thymidine (15 μM) was added to all cultures. • Initial count was: 1807 • Counts, as raw data, after 3 days of incubation, are shown below: […]
# • Human fibroblasts in culture were treated with 6-thioguanine (TG), 2,6-diaminopurine (DAP), or 5′-dAdo for 3 days. After trypsinization, cell numbers were counted. • Initial cell number: 296,000
smiles,measurement,setting,value
"C[C@H]1O[C@@H](n2cnc3c(N)ncnc32)[C@H](O)[C@@H]1O [5′-dAdo, 5′-deoxyadenosine]",blocking of MeP toxicity to murine hematopoietic progenitors,[1],effectively blocked
same,Coulter counts,"[2]; 3 days, 5′-dAdo 60 μM, no F-Ade, initial count 1,100, x56 = cells/dish",8150
same,protection of HF cells against MeP toxicity,[2]; Example 3,effectively protected
same,blocking of DAP toxicity in HF cells,[2]; Example 8,blocked
same,blocking of inhibition by TG and by DAP in HF cells,[2]; Example 15,blocked inhibition
same,protection of HF cells from the combined toxicity of TG and DAP,[2]; Example 15,protected
same,protection from toxicity of F-Ade,[2]; increasing concentration of 5′-dAdo,so does protection
